Experimental data: patent US5106961A, “Erythromycin ring-contracted derivatives” (Eli Lilly and Company, priority 1989, dated 1992)
≈ marks a conversion by molar mass, not a printed value. Like-named read-outs stand apart in the source and are kept apart here.

Legend:
Format in all cases: cell-based
[1] = tested on: Staphylococcus epidermidis 222; experiment: Agar-dilution MIC, Staphylococcus epidermidis 222; settings: read-out: minimal inhibitory concentration (MIC)
Source text: (§1) The compounds of formulas 1 and 2 inhibit the growth of certain pathogenic bacteria, especially Gram-positive bacteria and Gram-negative […] such as Haemophilus influenzae.

[2] = tested on: Streptococcus pyogenes C203; experiment: Agar-dilution MIC, Streptococcus pyogenes C203; settings: read-out: minimal inhibitory concentration (MIC)
Source text: as §1

[3] = tested on: Staphylococcus epidermidis 270; experiment: Agar-dilution MIC, Staphylococcus epidermidis 270; settings: read-out: minimal inhibitory concentration (MIC)
Source text: as §1

[4] = tested on: Staphylococcus aureus X1.1; experiment: Agar-dilution MIC, Staphylococcus aureus X1.1
Source text: as §1

[5] = tested on: Haemophilus influenzae 76; experiment: Agar-dilution MIC, Haemophilus influenzae 76; settings: Haemophilus influenzae 76, ampicillin-resistant strain, read-out: minimal inhibitory concentration (MIC)
Source text: as §1

[6] = tested on: Haemophilus influenzae C.L.; experiment: Agar-dilution MIC, Haemophilus influenzae C.L.; settings: ampicillin-sensitive strain, read-out: minimal inhibitory concentration (MIC)
Source text: as §1

[7] = tested on: Streptococcus faecalis 2041; experiment: Agar-dilution MIC, Streptococcus faecalis 2041; settings: Enterococcus faecalis, read-out: minimal inhibitory concentration (MIC)
Source text: as §1

[8] = tested on: Streptococcus pneumoniae Park I; experiment: Agar-dilution MIC, Streptococcus pneumoniae Park I; settings: read-out: minimal inhibitory concentration (MIC)
Source text: as §1

[9] = tested on: Staphylococcus aureus V41; experiment: Agar-dilution MIC, Staphylococcus aureus V41; settings: Staphylococcus aureus V41, penicillin-resistant strain, read-out: minimal inhibitory concentration (MIC)
Source text: as §1

[10] = tested on: Streptococcus faecalis X66; experiment: Agar-dilution MIC, Streptococcus faecalis X66; settings: Enterococcus faecalis, read-out: minimal inhibitory concentration (MIC)
Source text: as §1

[11] = Staphylococcus aureus X1.1, agar dilution, read-out: minimal inhibitory concentration (MIC)

Structure (SMILES)	MIC [1] [mg/L]	MIC [2] [mg/L]	MIC [3] [mg/L]	MIC [4, 11] [mg/L]	MIC [5] [mg/L]	MIC [6] [mg/L]	MIC [7] [mg/L]	MIC [8] [mg/L]	MIC [9] [mg/L]	MIC [10] [mg/L]	MIC ([4]; Staphylococcus aureus, X1.1, read-out: minimal inhibitory concentration (MIC)) [mg/L]
CO[C@]1(C)C[C@H](O[C@H]2[C@H](C)[C@@H](O[C@@H]3O[C@H](C)C[C@H](N(C)C)[C@H]3O)[C@@]3(C)CC(C)=C(O3)[C@H](C)[C@H](C(C)=O)OC(=O)[C@@H]2C)O[C@@H](C)[C@@H]1O [Compound 4]	> 128	64 (≈ 97.6 µM)	> 128	> 128	16 (≈ 24.4 µM)	16 (≈ 24.4 µM)	128 (≈ 195 µM)	32 (≈ 48.8 µM)	> 128	16 (≈ 24.4 µM)	–
CC[C@@H](O)[C@@](C)(O)[C@@H]1OC(=O)[C@H](C)[C@@H](O[C@H]2C[C@@](C)(OC)[C@@H](O)[C@H](C)O2)[C@H](C)[C@@H](O[C@@H]2O[C@H](C)C[C@H](N(C)C)[C@H]2O)[C@@]2(C)CC(C)(O)C(O)(O2)[C@@H]1C (some centres unmarked) [Compound 6]	64 (≈ 85.3 µM)	16 (≈ 21.3 µM)	> 128	–	8 (≈ 10.7 µM)	8 (≈ 10.7 µM)	64 (≈ 85.3 µM)	8 (≈ 10.7 µM)	> 128	16 (≈ 21.3 µM)	128 (≈ 171 µM)
CC[C@@H](O)[C@@](C)(O)[C@@H]1OC(=O)[C@H](C)[C@@H](O[C@H]2C[C@@](C)(OC)[C@@H](O)[C@H](C)O2)[C@H](C)[C@@H](O[C@@H]2O[C@H](C)C[C@H](N(C)C)[C@H]2O)[C@@]2(C)CC(C)=C(O2)[C@@H]1C [Compound 3]	> 128	32 (≈ 44.7 µM)	> 128	> 128	32 (≈ 44.7 µM)	32 (≈ 44.7 µM)	> 128	16 (≈ 22.3 µM)	> 128	64 (≈ 89.4 µM)	–

Further lines, with some results ahead:

MIC [1] [mg/L]	MIC [2] [mg/L]	MIC [3] [mg/L]	MIC [4, 11] [mg/L]	MIC [5] [mg/L]	MIC [6] [mg/L]	MIC [7] [mg/L]	MIC [8] [mg/L]	MIC [9] [mg/L]	MIC [10] [mg/L]	Structure (SMILES)	MIC ([4]; Staphylococcus aureus, X1.1, read-out: minimal inhibitory concentration (MIC)) [mg/L]
64 (≈ 91.4 µM)	64 (≈ 91.4 µM)	64 (≈ 91.4 µM)	64 (≈ 91.4 µM)	128 (≈ 183 µM)	128 (≈ 183 µM)	64 (≈ 91.4 µM)	64 (≈ 91.4 µM)	> 128	64 (≈ 91.4 µM)	CC[C@@H](O)[C@H](C)[C@@H]1OC(=O)[C@H](C)[C@@H](O[C@H]2C[C@@](C)(OC)[C@@H](O)[C@H](C)O2)[C@H](C)[C@@H](O[C@@H]2O[C@H](C)C[C@H](N(C)C)[C@H]2O)[C@@]2(C)CC(C)=C(O2)[C@@H]1C [Compound 3a]	–
> 128	128 (≈ 186 µM)	> 128	> 128	64 (≈ 93 µM)	64 (≈ 93 µM)	> 128	32 (≈ 46.5 µM)	> 128	64 (≈ 93 µM)	CO[C@]1(C)C[C@H](O[C@H]2[C@H](C)[C@@H](O[C@@H]3O[C@H](C)C[C@H](N(C)C)[C@H]3O)[C@@](C)(CC(C)=O)OC(=O)[C@H](C)[C@H](C(C)=O)OC(=O)[C@@H]2C)O[C@@H](C)[C@@H]1O [Compound 8]	–
